According to paper PMC8213057, “Targeting ALK2: An Open Science Approach to Developing Therapeutics for the Treatment of Diffuse Intrinsic Pontine Glioma” (Journal of Medicinal Chemistry, 2020):

Legend:
GRK3 = molecular target: T1, GRK3 (Homo sapiens, UniProt P35626); conditions: 1 μM; Run 1, Run 2
T1 sequence (P35626 1-688): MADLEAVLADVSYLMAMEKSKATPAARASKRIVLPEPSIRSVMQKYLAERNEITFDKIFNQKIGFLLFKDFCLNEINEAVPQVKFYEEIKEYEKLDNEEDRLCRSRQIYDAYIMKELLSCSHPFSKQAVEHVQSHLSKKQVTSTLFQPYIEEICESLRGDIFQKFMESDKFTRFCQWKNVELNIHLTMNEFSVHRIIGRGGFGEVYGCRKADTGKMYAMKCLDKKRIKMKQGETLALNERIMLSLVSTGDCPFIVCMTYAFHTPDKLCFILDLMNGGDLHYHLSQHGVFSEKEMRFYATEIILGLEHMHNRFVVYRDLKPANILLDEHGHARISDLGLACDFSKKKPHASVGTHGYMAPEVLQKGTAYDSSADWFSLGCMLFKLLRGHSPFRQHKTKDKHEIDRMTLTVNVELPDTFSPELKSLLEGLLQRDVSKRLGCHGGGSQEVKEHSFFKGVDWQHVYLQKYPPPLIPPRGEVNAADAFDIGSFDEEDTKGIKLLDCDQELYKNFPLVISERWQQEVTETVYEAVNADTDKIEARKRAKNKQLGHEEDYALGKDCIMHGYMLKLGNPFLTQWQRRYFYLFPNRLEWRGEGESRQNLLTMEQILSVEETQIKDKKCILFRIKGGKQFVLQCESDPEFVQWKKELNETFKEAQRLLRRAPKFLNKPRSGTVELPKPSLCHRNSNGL

ALK6/BMPR1B = molecular target: T2, ALK6/BMPR1B (Homo sapiens, UniProt O00238); experiment: 375-member kinase panel; assay type: biochemical; conditions: Run 1, Run 2; for % enzyme activity: 1 μM; for remaining activity at 1 µM: read-out: % enzyme activity, 1 μM
T2 construct: purchased Reaction Biology Corporation

GRK2 = molecular target: T3, GRK2 (Homo sapiens, UniProt P25098); conditions: 1 μM; Run 1, Run 2
T3 sequence (P25098 1-689): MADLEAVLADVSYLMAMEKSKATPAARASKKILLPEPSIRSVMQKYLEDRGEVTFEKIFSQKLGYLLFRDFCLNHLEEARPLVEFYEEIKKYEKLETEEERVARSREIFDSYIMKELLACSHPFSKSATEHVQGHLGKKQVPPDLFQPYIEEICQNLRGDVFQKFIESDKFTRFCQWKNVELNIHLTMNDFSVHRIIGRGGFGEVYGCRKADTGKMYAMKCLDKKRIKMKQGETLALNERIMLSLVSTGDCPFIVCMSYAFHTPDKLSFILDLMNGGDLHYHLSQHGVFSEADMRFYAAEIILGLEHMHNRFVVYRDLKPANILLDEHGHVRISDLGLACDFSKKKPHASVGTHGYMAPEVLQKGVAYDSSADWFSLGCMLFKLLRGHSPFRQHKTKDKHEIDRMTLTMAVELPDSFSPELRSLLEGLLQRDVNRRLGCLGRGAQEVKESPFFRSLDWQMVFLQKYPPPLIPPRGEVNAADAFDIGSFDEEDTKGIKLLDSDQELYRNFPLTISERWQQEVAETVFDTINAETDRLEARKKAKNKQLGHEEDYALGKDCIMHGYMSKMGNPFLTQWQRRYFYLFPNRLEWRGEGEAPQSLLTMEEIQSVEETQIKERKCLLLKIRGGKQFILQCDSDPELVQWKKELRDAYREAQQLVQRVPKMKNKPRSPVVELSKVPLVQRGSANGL

ARAF = molecular target: T4, ARAF (Homo sapiens, UniProt P10398); conditions: 1 μM; Run 1, Run 2
T4 sequence (P10398 1-606): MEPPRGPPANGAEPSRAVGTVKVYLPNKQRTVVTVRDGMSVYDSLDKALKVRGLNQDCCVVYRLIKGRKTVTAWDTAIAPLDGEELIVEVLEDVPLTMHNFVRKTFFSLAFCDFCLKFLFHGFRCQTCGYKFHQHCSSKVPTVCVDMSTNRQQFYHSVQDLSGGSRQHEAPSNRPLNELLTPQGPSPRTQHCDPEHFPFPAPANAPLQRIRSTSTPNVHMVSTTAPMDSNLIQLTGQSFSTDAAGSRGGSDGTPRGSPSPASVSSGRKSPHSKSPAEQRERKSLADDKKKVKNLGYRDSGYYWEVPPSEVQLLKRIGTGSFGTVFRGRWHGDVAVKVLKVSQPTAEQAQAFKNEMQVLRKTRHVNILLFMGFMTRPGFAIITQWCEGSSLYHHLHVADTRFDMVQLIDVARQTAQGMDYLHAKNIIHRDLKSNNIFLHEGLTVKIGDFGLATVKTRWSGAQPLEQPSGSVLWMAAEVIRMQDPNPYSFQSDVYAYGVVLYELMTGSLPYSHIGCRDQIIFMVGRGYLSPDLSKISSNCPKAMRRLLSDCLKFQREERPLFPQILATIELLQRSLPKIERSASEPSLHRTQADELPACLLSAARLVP

HIPK1 = HIPK1 (Homo sapiens, UniProt Q86Z02); conditions: 1 μM; Run 1, Run 2
GLK/MAP4K3 = molecular target: T5, GLK/MAP4K3 (Homo sapiens, UniProt Q8IVH8); conditions: 1 μM; Run 1, Run 2
T5 sequence (Q8IVH8 1-894): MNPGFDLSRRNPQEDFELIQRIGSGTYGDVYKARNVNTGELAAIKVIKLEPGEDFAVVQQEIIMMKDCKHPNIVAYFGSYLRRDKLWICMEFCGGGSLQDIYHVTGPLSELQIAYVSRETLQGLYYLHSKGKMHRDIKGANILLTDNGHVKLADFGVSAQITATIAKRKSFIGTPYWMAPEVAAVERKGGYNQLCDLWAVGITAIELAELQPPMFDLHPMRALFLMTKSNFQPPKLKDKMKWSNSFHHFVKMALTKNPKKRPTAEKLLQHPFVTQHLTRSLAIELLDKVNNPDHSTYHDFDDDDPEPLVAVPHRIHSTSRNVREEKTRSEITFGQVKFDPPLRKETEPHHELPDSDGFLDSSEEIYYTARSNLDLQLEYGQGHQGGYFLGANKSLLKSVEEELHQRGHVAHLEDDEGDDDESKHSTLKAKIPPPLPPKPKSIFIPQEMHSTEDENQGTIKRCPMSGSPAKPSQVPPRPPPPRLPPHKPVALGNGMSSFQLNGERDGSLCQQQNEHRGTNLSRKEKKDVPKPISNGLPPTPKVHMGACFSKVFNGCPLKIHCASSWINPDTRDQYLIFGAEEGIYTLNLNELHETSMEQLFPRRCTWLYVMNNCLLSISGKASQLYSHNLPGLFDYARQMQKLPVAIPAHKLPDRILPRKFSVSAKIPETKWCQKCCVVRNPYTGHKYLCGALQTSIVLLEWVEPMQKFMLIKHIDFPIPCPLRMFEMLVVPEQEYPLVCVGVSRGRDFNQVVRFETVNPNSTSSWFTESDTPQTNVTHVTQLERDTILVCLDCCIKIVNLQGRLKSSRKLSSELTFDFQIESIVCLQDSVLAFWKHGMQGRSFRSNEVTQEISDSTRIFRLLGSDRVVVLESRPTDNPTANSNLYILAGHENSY

T2 sequence (O00238 14-502): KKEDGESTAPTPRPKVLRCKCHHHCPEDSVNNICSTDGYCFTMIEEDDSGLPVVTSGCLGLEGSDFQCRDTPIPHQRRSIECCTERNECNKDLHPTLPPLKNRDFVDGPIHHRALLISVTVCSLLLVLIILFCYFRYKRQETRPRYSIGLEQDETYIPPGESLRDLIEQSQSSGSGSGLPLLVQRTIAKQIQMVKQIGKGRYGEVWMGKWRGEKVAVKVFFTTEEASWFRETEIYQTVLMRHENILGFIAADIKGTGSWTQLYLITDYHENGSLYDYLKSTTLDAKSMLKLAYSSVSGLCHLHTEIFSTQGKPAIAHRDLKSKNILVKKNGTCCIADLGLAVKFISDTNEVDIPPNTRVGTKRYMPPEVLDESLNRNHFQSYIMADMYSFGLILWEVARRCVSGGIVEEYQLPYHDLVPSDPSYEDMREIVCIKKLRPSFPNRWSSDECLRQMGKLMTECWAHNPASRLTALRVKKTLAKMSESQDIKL
Chain of HIPK1 (Q86Z02 whole entry): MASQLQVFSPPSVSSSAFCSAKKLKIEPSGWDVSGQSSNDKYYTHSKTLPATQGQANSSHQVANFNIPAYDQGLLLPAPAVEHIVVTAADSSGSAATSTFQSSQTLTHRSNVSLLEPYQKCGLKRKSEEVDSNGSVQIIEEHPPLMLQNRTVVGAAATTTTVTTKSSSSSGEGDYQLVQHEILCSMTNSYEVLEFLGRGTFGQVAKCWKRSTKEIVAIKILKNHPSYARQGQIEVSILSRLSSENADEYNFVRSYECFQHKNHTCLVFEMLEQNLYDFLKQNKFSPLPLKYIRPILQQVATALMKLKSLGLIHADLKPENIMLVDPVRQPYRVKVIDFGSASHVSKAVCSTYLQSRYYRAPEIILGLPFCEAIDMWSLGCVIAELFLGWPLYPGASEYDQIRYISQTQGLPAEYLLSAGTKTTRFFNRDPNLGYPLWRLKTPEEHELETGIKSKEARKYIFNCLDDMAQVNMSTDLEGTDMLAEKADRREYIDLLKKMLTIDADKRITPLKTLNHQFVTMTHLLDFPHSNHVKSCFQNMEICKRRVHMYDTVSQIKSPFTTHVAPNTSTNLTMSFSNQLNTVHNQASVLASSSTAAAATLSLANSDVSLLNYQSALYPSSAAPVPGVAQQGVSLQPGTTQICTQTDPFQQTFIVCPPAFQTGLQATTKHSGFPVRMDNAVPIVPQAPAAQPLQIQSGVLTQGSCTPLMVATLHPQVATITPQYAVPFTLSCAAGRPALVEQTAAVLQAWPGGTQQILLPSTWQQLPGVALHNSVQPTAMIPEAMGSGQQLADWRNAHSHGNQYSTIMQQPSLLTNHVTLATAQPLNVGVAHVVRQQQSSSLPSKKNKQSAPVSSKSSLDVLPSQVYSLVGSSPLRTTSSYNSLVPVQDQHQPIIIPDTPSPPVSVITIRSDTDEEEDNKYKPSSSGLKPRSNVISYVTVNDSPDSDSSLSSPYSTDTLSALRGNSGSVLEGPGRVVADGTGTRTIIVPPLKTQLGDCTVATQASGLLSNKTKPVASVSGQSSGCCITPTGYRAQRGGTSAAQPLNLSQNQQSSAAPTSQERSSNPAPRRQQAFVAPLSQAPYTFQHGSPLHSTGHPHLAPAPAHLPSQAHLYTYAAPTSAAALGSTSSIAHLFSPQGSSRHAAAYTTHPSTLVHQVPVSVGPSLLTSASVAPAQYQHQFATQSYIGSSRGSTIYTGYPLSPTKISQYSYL

| SMILES | % enzyme activity (GRK3) | % enzyme activity (ALK6/BMPR1B) | remaining activity at 1 µM (ALK6/BMPR1B) | % enzyme activity (GRK2) | % enzyme activity (ARAF) | % enzyme activity (HIPK1) | % enzyme activity (GLK/MAP4K3) |
| --- | --- | --- | --- | --- | --- | --- | --- |
| COc1cc(-c2cncc(-c3ccc(N4CCN(C)CC4)cc3)c2C)cc(F)c1C(N)=O [Compound 26a, 2-Fluoro-6-methoxy-4-(4-methyl-5-(4-(4-methylpiperazin-1-yl)phenyl)pyridin-3-yl)benzamide] | 94.07% | 17.03% | 18.2% | 103.58% | 28.83% | 102.36% | 88.16% |
| COc1cc(-c2cncc(-c3ccc(N4C[C@@H](C)N(C)[C@@H](C)C4)cc3)c2C)cc(F)c1C(N)=O [Compound 26c, 2-Fluoro-6-methoxy-4-(4-methyl-5-(4-((3R,5S)-3,4,5-trimethylpiperazin-1-yl)phenyl)pyridin-3-yl)benzamide] | 95.20% | 30.06% | 30.2% | 99.17% | 43.32% | 96.64% | 88.71% |
